Test results taken from ChEMBL document CHEMBL4765487, “From a Designer Drug to the Discovery of Selective Cannabinoid Type 2 Receptor Agonists with Favorable Pharmacokinetic Profiles for the Treatment of Systemic Sclerosis” (J Med Chem, 2021).
Active and inactive are the calls of the source. The rule behind the calls is not given here.

Tests used:
Mus musculus [1] = test: Antifibrotic activity in BALB/c mouse model of BLM-induced systemic sclerosis assessed as reduction in alpha-SMA mRNA expression at 1 to 5 mg/kg, sc dosed once daily for 4 weeks by quantitative real-time PCR analysis; type: functional, organism-based; conditions: dose 1-5 mg/kg
Cannabinoid receptor 2 [2] = target: T1, Cannabinoid receptor 2 (Homo sapiens, UniProt P34972); test: Agonist activity at human CB2 receptor expressing CHO cells co-expressing Galpha16 by calcium mobilization assay; type: functional, cell-based
CHO = test: Effect on ERK1/2 Thr202/Tyr204 phosphorylation in CHO cells at 0.1 to 10 uM incubated for 15 mins by Western blot analysis; type: functional, cell-based; conditions: Cricetulus griseus, dose 0.1-10 µM
[3] = target: T2, Probable G-protein coupled receptor 132 (Homo sapiens) (UniProt Q9UNW8); test: Antagonist activity at GPR132 (unknown origin) at 10 uM
T2 sequence (whole entry): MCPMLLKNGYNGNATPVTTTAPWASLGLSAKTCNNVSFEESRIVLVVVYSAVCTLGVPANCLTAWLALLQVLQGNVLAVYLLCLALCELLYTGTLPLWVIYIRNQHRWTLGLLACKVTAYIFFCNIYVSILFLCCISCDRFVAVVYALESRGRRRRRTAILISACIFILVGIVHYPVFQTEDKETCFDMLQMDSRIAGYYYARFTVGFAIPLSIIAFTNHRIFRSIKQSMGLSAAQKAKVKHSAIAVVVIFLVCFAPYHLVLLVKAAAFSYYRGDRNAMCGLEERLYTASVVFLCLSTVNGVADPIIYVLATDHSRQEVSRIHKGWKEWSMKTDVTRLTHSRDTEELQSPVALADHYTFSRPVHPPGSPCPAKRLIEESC

Cannabinoid receptor 1 [4] = target: T3, Cannabinoid receptor 1 (Homo sapiens, UniProt P21554); test: Agonist activity at human CB1 receptor expressing CHO cells co-expressing Galpha16 by calcium mobilization assay relative to CP55940; type: functional, cell-based
Cannabinoid receptor 2 [5] = target: T1, Cannabinoid receptor 2; test: Agonist activity at human CB2 receptor expressed in CHO cells assessed as increase in ERK1/2 Thr202/Tyr204 phosphorylation at 10 uM incubated for 15 mins in presence of CB2 antagonist AM630 by Western blot analysis; type: cell-based
[6] = Cmax in BALB/c mouse at 5 mg/kg, po measured during 0.083 to 24 hrs post dose by LC-MS/MS analysis; type: ADME, organism-based; design: route oral, time 0.083-24 hrs, dose 5 mg/kg; conditions: in vivo
Cannabinoid receptor 2 [7] = target: T1, Cannabinoid receptor 2; test: Agonist activity at human CB2 receptor expressed in HEK293 cells assessed as inhibition of forskolin-induced cAMP production incubated for 15 mins by cAMP HTRF assay; type: functional, cell-based
Mus musculus [8] = test: Antifibrotic activity in BALB/c mouse model of BLM-induced systemic sclerosis assessed as reduction in dermal pathological symptoms at 1 to 5 mg/kg, sc dosed once daily for 4 weeks by H and E staining based analysis; type: functional, organism-based; conditions: dose 1-5 mg/kg
[9] = target: Prostaglandin E2 receptor EP4 subtype (Homo sapiens) (UniProt P35408); test: Agonist activity at EP2 (unknown origin) at 10 uM
[10] = target: T2, Probable G-protein coupled receptor 132 (Homo sapiens); test: Agonist activity at GPR132 (unknown origin) at 10 uM
[11] = Oral bioavailability in BALB/c mouse at 5 mg/kg measured during 0.083 to 24 hrs post dose by LC-MS/MS analysis; type: ADME, organism-based; conditions: in vivo, time 0.083-24 hrs
[12] = Half life in BALB/c mouse at 1 mg/kg, iv measured during 0.083 to 24 hrs post dose by LC-MS/MS analysis; type: ADME, organism-based; conditions: in vivo, time 0.083-24 hrs
[13] = Half life in BALB/c mouse at 5 mg/kg, po measured during 0.083 to 24 hrs post dose by LC-MS/MS analysis; type: ADME, organism-based; conditions: in vivo, time 0.083-24 hrs
Mus musculus [14] = test: Antifibrotic activity in BALB/c mouse model of BLM-induced systemic sclerosis assessed as reduction in Col1alpha mRNA expression at 1 to 5 mg/kg, sc dosed once daily for 4 weeks by quantitative real-time PCR analysis; type: functional, organism-based; conditions: dose 1-5 mg/kg
Cannabinoid receptor 1 [15] = target: T3, Cannabinoid receptor 1; test: Agonist activity at human CB1 receptor expressing CHO cells co-expressing Galpha16 at 10 uM by calcium mobilization assay; type: functional, cell-based; conditions: filed as agonist
Mus musculus [16] = test: Antifibrotic activity in BALB/c mouse model of BLM-induced systemic sclerosis assessed as reduction in TNF-alpha mRNA expression at 1 to 5 mg/kg, sc dosed once daily for 4 weeks by quantitative real-time PCR analysis; type: functional, organism-based; conditions: dose 1-5 mg/kg
[17] = Cmax in BALB/c mouse at 1 mg/kg, iv measured during 0.083 to 24 hrs post dose by LC-MS/MS analysis; type: ADME, organism-based; design: route intravenous, time upper 24 hrs, dose 1 mg/kg, time lower 0.083 hrs; conditions: in vivo
[18] = Clearance in BALB/c mouse at 5 mg/kg, po measured during 0.083 to 24 hrs post dose by LC-MS/MS analysis; type: ADME, organism-based; conditions: in vivo, time 0.083-24 hrs
Mus musculus [19] = test: Antifibrotic activity in BALB/c mouse model of BLM-induced systemic sclerosis assessed as reduction in alpha-SMA expression at 1 to 5 mg/kg, sc dosed once daily for 4 weeks by immunohistochemical analysis; type: functional, organism-based; conditions: dose 1-5 mg/kg
[20] = target: T4, Glucose-dependent insulinotropic receptor (Homo sapiens) (UniProt Q8TDV5); test: Agonist activity at GPR119 (unknown origin) at 10 uM
T4 sequence (whole entry): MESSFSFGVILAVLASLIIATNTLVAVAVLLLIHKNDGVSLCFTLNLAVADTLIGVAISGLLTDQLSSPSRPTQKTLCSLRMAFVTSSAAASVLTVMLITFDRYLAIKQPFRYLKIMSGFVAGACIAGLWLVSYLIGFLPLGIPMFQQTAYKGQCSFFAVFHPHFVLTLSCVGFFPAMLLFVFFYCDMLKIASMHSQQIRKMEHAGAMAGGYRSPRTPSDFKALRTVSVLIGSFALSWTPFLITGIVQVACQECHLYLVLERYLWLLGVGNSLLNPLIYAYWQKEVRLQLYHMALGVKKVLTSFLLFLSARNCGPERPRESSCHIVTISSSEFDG

Cannabinoid receptor 1 [21] = target: T3, Cannabinoid receptor 1; test: Induction of receptor desensitization at human CB1 receptor expressing CHO cells co-expressing Galpha16 at 10 uM followed by washing with HBSS buffer upon incubation for 10 mins and restimulated with CP55940 by calcium mobilization assay; type: functional, cell-based; conditions: filed as agonist
in vitro = conditions: human, liver microsomes
Description: Half life in human liver microsomes at 1 uM in presence of NADPH by LC-MS/MS analysis

Mus musculus [22] = test: Antifibrotic activity in BALB/c mouse model of BLM-induced systemic sclerosis assessed as reduction in skin thickness at 5 mg/kg, sc dosed once daily for 4 weeks by H and E staining based analysis; type: functional, organism-based
Mus musculus [23] = test: Antifibrotic activity in BALB/c mouse model of BLM-induced systemic sclerosis assessed as reduction in TGF-beta mRNA expression at 1 to 5 mg/kg, sc dosed once daily for 4 weeks by quantitative real-time PCR analysis; type: functional, organism-based; conditions: dose 1-5 mg/kg
Cannabinoid receptor 2 [24] = target: T1, Cannabinoid receptor 2; test: Agonist activity at human CB2 receptor expressing CHO cells co-expressing Galpha16 in presence of CB2 antagonist AM630 by calcium mobilization assay; type: functional, cell-based
[25] = target: Prostaglandin E2 receptor EP4 subtype (Homo sapiens) (UniProt P35408); test: Antagonist activity at EP2 (unknown origin) at 10 uM
Cannabinoid receptor 2 [26] = target: T1, Cannabinoid receptor 2; test: Agonist activity at human CB2 receptor expressed in CHO cells assessed as increase in ERK1/2 Thr202/Tyr204 phosphorylation at 0.1 to 10 uM incubated for 15 mins by Western blot analysis; type: cell-based; conditions: filed as agonist, dose 0.1-10 µM

T1 sequence (P34972 whole entry): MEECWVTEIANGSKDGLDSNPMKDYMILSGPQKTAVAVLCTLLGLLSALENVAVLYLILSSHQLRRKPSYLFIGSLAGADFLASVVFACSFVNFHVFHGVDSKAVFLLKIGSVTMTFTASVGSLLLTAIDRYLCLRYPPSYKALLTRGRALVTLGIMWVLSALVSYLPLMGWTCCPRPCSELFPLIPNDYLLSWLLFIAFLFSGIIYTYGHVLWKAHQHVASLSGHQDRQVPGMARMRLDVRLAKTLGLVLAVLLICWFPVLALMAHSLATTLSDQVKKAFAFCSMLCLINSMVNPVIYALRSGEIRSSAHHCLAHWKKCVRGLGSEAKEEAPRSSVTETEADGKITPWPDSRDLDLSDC
T3 sequence (P21554 whole entry): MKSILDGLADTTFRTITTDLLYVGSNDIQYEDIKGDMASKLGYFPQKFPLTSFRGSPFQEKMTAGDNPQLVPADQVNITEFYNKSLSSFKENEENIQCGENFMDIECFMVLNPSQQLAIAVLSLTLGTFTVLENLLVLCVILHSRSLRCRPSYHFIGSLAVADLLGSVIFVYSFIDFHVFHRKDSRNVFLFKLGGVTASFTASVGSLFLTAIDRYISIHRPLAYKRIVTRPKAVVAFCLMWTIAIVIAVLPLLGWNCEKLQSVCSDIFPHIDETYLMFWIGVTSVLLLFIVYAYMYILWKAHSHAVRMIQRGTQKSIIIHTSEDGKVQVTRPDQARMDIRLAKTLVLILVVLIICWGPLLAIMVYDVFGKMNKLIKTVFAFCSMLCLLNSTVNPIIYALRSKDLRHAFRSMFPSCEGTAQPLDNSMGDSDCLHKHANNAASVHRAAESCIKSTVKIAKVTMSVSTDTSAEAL
Prostaglandin E2 receptor EP4 subtype (Homo sapiens), sequence (P35408 whole entry): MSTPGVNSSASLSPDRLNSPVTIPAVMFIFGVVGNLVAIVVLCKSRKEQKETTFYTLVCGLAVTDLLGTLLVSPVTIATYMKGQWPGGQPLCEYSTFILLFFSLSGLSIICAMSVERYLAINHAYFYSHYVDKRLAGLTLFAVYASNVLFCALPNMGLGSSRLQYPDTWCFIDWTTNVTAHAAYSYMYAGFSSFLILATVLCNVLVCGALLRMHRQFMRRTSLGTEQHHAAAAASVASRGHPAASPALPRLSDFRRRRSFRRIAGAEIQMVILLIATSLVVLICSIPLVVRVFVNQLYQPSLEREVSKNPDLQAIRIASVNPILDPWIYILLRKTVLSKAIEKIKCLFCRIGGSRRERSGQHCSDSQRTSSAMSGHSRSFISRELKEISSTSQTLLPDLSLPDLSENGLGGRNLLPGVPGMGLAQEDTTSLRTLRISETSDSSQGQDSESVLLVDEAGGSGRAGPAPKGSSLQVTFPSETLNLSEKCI

CC(C)(CO)NC(=O)c1cc(C(C)(C)C)n(-c2ccc(C(F)(F)F)cn2)n1
Activity (Mus musculus [1]): Active | EC50 (Cannabinoid receptor 2 [2]): 15.2 nM | Activity (CHO): inactive | Activity [3]: inactive | Emax (Cannabinoid receptor 1 [4]): 30% | Activity (Cannabinoid receptor 2 [5]): inactive | Cmax [6]: 603 ng/mL | EC50 (Cannabinoid receptor 2 [7]): 10.7 nM | Activity (Mus musculus [8]): Active | Activity [9]: inactive | Activity [10]: inactive | bioavailability [11]: 79.5% | half-life [12]: 1.32 h | half-life [13]: 2.18 h | Activity (Mus musculus [14]): Active | Activity (Cannabinoid receptor 1 [15]): Active | Activity (Mus musculus [16]): Active | Cmax [17]: 959 ng/mL | CL/F [18]: 51.7 mL/min/kg | Activity (Mus musculus [19]): Active | Activity [20]: inactive | Activity (Cannabinoid receptor 1 [21]): Active | half-life at 1 µM (in vitro): 1.88 h | Activity (Mus musculus [22]): Active | Activity (Mus musculus [23]): Active | Activity (Cannabinoid receptor 2 [24]): inactive | Activity [25]: inactive | Activity (Cannabinoid receptor 2 [26]): Active
